{"source": "patent US9592228B2", "about": "“Treatment of inflammation using alpha 7 receptor-binding agonists” (THE FEINSTEIN INSTITUTE FOR MEDICAL RESEARCH, priority 2002, dated 2017)", "key": {"[1]": {"molecular_target": "α-bungarotoxin-binding nicotinic receptors on primary human macrophages (Homo sapiens, UniProt P36544)", "sequence (P36544 23-502)": "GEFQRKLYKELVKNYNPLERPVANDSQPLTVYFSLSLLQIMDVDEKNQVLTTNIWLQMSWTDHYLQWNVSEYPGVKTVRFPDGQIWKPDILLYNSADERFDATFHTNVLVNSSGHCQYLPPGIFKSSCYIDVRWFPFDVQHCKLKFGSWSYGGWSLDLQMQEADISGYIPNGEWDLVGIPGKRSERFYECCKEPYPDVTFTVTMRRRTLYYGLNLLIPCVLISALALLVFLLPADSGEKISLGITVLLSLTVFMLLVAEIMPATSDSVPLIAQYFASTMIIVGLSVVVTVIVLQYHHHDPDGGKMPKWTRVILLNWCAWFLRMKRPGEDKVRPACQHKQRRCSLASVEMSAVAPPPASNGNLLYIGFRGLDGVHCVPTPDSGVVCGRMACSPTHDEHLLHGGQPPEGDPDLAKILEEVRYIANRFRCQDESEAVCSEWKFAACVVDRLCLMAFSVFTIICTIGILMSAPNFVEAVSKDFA"}, "[2]": {"tested_on": "TNF production by LPS-stimulated wild type peritoneal macrophages", "assay": "TNF production by wild type peritoneal macrophages", "assay_type": "cell-based, mouse", "conditions": "4 h, ELISA, mean ± s.e.m., n = 8"}, "[3]": {"tested_on": "TNF production by LPS-stimulated nicotinic acetylcholine receptor α7 subunit knockout peritoneal macrophages", "assay_type": "cell-based, mouse"}, "[4]": {"tested_on": "LPS induced TNF-α release from murine RAW 264.7 macrophage-like cells", "assay": "cells", "assay_type": "cell-based"}, "[5]": {"tested_on": "macrophages", "conditions": "data not shown"}, "[6]": {"tested_on": "Balb/c mice", "conditions": "mouse, in vivo"}, "[7]": {"tested_on": "C57 B/6 mice", "conditions": "mouse, in vivo"}, "[8]": {"tested_on": "C57 B/6 mice", "conditions": "mouse, in vivo", "remark": "listed apart in the source"}, "[9]": {"conditions": "agonist 1 μM added 5-10 min before LPS (100 ng/ml)"}, "[10]": {"conditions": "agonist 10 μM added 5-10 min before LPS (100 ng/ml)"}}, "note": "Several values for one entry are separate records, joined by “and”; a condition that tells them apart may be missing. Equal values may be shown once. Read-outs that look alike come from different tables or passages of the source.", "data": [{"compound": "CN1CCCC1c1cccnc1", "note": "(stereo not shown) [nicotine]", "values": [{"measurement": "effect of pretreatment on intensity of α-bungarotoxin binding", "setting": "[1]", "result": "markedly reduced"}, {"measurement": "TNF", "setting": "[2]; [9]", "result": "5.2 ± 0.9", "unit": "ng/mL"}, {"measurement": "TNF", "setting": "[2]; [10]", "result": "7.3 ± 1.0", "unit": "ng/mL"}, {"measurement": "TNF", "setting": "[3]", "result": "17.8 ± 0.6 ng/mL and 17.4 ± 2.9 ng/mL"}, {"measurement": "TNF production by α7 knockout macrophages in the presence of the agonist", "setting": "[3]", "result": "produced TNF normally"}, {"measurement": "inhibition of TNF-α release", "setting": "[4]; 0.001-100 uM added five minutes before LPS (500 ng/ml), 4 hours, ELISA, FIG. 7", "result": "dose dependently inhibits"}, {"measurement": "inhibition of LPS-induced TNF release in RAW264.7", "setting": "[4]; data not shown", "result": "significantly inhibit"}, {"measurement": "calcium influx", "setting": "[5]", "result": "induces transient calcium influx"}]}, {"compound": "CC(=O)OCC[N+](C)(C)C", "note": "[Ach, acetylcholine]", "values": [{"measurement": "TNF", "setting": "[2]; [9]", "result": "10.3 ± 1.1", "unit": "ng/mL"}, {"measurement": "TNF", "setting": "[2]; [10]", "result": "5.7 ± 0.9", "unit": "ng/mL"}, {"measurement": "TNF", "setting": "[3]", "result": "20.4 ± 3.8 ng/mL and 21.4 ± 2.4 ng/mL"}]}, {"compound": "COc1cc(O)ccc1/C=C1\\CCCN=C1c1cccnc1", "note": "[Compound (VI), 3-(4-hydroxy-2-methoxybenzylidene)anabaseine]", "values": [{"measurement": "mice survived on Day 14", "setting": "[6]", "result": 82, "unit": "%"}, {"measurement": "percent inhibition of TNF-α", "setting": "[4]", "result": "dose dependently inhibits"}, {"measurement": "IC50", "setting": "[4]; Mus musculus, RAW264.7, read-out: estimated IC50, inhibition of TNF-α", "result": "~900", "unit": "nM"}, {"measurement": "decrease of the level of circulating TNF-α compared to vehicle control", "setting": "[7]", "result": "approximately 50%"}, {"measurement": "colon length compared to control mice", "setting": "[8]", "result": "slightly greater"}, {"measurement": "colon weight (wet weight) compared to control condition", "setting": "[8]", "result": "decreased"}]}, {"compound": "O=C1NCC2(CN3CCC2CC3)O1", "note": "(single isomer, unassigned; (-)) [Compound (VII), (−)-spiro[1-azabicyclo[2.2.2]octane-3,5′-oxazolidin-2′-one]]", "values": [{"measurement": "TNF-α release from RAW 264.7 cells at the higher concentrations", "setting": "[4]", "result": "inhibit TNF-α release"}, {"measurement": "decrease of TNF-α release compared to control cells", "setting": "[4]", "result": "more than four times"}]}, {"compound": "COc1ccc(/C=C2\\CCCN=C2c2cccnc2)c(OC)c1", "note": "[Compound (V), 3-2,4-dimethoxybenzylidene anabaseine]", "values": [{"measurement": "mice survived on Day 14", "setting": "[6]", "result": 91, "unit": "%"}, {"measurement": "inhibition of TNF-α release", "setting": "[4]", "result": "dose dependently inhibits"}]}, {"compound": "α-bungarotoxin", "values": [{"measurement": "binding of α-bungarotoxin on the macrophage surface", "setting": "[1]", "result": "Strong binding"}]}]}
